Columns and labels:
Aurora B = Aurora B (Homo sapiens (Human), UniProt Q96GD4); assay: Z'-LYTE kinase assay, Aurora B; format: biochemical; conditions: Z'LYTE assay format, ATP at Km
Method: (§1) The enzymatic activities against PI3K-α, PI3K-β, PI3K-γ and PI3K-δ were tested in ADAPTA assays. Activity against […] were tested in Z′-Lyte assays. All assays were performed with ATP concentrations of Km for each kinase. BRD4_1 binding was tested using an AlphaScreen assay. All protocols are available from Life Technologies.
as §1, with “against PI3K-α, PI3K-γ and” for “against PI3K-α, PI3K-β, PI3K-γ and”, “assay. All the protocols are” for “assay. All protocols are”

PI3K-γ = PI3K-γ (Homo sapiens (Human), UniProt P48736); assay: ADAPTA kinase assay, PI3K-γ; format: biochemical; conditions: ADAPTA assay format; for IC50: ATP at Km
Method: as §1
as §1, with “against PI3K-α, PI3K-γ and” for “against PI3K-α, PI3K-β, PI3K-γ and”, “assay. All the protocols are” for “assay. All protocols are”

PI3K-δ = PI3K-δ (Homo sapiens (Human), UniProt O00329); assay: ADAPTA kinase assay, PI3K-δ; format: biochemical; conditions: ADAPTA assay format; for IC50: ATP at Km
Method: as §1
as §1, with “against PI3K-α, PI3K-γ and” for “against PI3K-α, PI3K-β, PI3K-γ and”, “assay. All the protocols are” for “assay. All protocols are”

Aurora A = Aurora A (Homo sapiens (Human), UniProt O14965); assay: Z'-LYTE kinase assay, Aurora A; format: biochemical; conditions: Z'LYTE assay format, ATP at Km
Method: The enzymatic activities against PI3K-α, PI3K-β, PI3K-γ and PI3K-δ were tested in ADAPTA assays. […] All assays were performed with ATP concentrations of Km for each kinase. BRD4_1 binding was tested using an AlphaScreen assay. All protocols are available from Life Technologies.
The enzymatic activities against PI3K-α, PI3K-γ and PI3K-δ were tested in ADAPTA assays. […] All assays were performed with ATP concentrations of Km for each kinase. BRD4_1 binding was tested using an AlphaScreen assay. All the protocols are available from Life Technologies.

PI3K-β = PI3K-β (Homo sapiens (Human), UniProt P42338); assay: ADAPTA kinase assay, PI3K-β; format: biochemical; conditions: ADAPTA assay format, ATP at Km
Method: as §1
as §1, with “against PI3K-α, PI3K-γ and” for “against PI3K-α, PI3K-β, PI3K-γ and”, “assay. All the protocols are” for “assay. All protocols are”

PI3K-α = PI3K-α (Homo sapiens (Human), UniProt P42336); assay: ADAPTA kinase assay, PI3K-α; format: biochemical; conditions: ADAPTA assay format, ATP at Km
Method: as §1
as §1, with “against PI3K-α, PI3K-γ and” for “against PI3K-α, PI3K-β, PI3K-γ and”, “assay. All the protocols are” for “assay. All protocols are”

MV4:11 cells = assay: CellTiter-Glo cell viability assay, MV4:11; format: cell-based; conditions: Homo sapiens, MV4-11, 72 h, 3 days, average of three replicates
Method: (§2) Cell viability assays were performed using CellTiter-Glo (Promega). Cells were grown in RPMI-10% FBS medium. 600 cells per well were seeded in a 96-well plate and then treated with eight doses of each compound in 3-fold dilution steps ranging from 10 um to 0.0046 uM for 3 days. Wells were imaged using a luminometer. IC50 were determined using Prism software. Data was normalized to a dimethyl sulfoxide (DMSO)-only control.

Loucy cells = assay: CellTiter-Glo cell viability assay, Loucy; format: cell-based; conditions: 72 h, 3 days, average of three replicates
Method: as §2

Molm14 cells = assay: CellTiter-Glo cell viability assay, Molm14; format: cell-based; conditions: Homo sapiens, MOLM-14, 72 h, 3 days, average of three replicates
Method: as §2

[1] = test system: PI3K-δ signaling (HMEC expressing CA-p110δ); assay: PI3K cellular signaling assay in isogenic HMEC lines (Western blot); format: cell-based; conditions: 10 nM concentration, FIG. 4C
Method: HMEC derivative cell lines were serum-starved for 3 hours, then treated with the indicated compounds at 0.01 μM, 0.1 μM, or 1 μM for 1 h. Cell lysates were prepared and subjected to Western blot assays with the indicated antibodies. Du, Duvelisib; Id, Idelalisib.
PI3K cellular signaling assays were performed as previously described (Reference 18).
HMEC derivative cells were cultured as described previously (Ni J, Liu Q, Xie S, et al. Functional characterization of an isoform-selective inhibitor of PI3K-p110beta as a potential anticancer agent. Cancer discovery. 2012; 2(5):425-433).
Western blot analysis was performed as previously described (Reference 1). Anti-phospho-AKT (Thr308) (#4056), anti-phospho-AKT (Ser473) (#4060), anti-AKT (#9272), anti-phospho-S6 ribosomal protein (Ser235/236) (#2211), anti-S6 ribosomal protein (#2217) antibodies were all from Cell Signaling Technology (Hanover, Mass.), and anti-α-tubulin antibody was from Sigma (Rockford, Ill.).

[2] = test system: patient-derived primary CLL cells; assay: CellTiter-Glo cell viability assay, patient-derived primary CLL cells; format: cell-based; conditions: Homo sapiens
Method: The CellTiter-Glo assay (Promega) was used to determine the viability of cells from chronic lymphocytic leukemia (CLL) patients at baseline (primary human patient derived CLL cells), upon IgM stimulation, and after drug treatment. IgM stimulation was conducted using AffiniPure F(ab′)2 Fragment Goat Anti-Human IgM (Jackson ImmunoResearch). Cell viability results after drug treatment are presented in FIG. 7A (IgM-stimulated cells) and FIG. 7B (PBS control).

MOLT4 cells = assay: CellTiter-Glo proliferation / cell viability assay, MOLT4; format: cell-based; conditions: Homo sapiens, MOLT-4, 72 h, 3 days, average of three replicates
Method: (§3) Proliferation assays were conducted in Jurkat or MOLT4 cell lines using Cell Titer Glo as described in product manual.
as §2

Jurkat cells = assay: CellTiter-Glo proliferation / cell viability assay, Jurkat; format: cell-based; conditions: Homo sapiens, 72 h, 3 days, average of three replicates
Method: as §3, §2

Chain of Aurora B (Q96GD4 whole entry): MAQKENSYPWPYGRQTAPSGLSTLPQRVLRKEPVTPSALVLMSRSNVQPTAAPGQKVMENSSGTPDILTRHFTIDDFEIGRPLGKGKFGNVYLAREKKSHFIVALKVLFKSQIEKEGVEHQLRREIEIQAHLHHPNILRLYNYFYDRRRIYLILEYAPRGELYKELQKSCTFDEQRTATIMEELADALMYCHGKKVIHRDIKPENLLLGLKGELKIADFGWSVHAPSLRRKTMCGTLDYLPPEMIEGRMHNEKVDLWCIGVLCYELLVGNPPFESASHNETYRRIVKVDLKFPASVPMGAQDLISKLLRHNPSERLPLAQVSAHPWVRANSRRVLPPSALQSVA
Chain of PI3K-δ (O00329 whole entry): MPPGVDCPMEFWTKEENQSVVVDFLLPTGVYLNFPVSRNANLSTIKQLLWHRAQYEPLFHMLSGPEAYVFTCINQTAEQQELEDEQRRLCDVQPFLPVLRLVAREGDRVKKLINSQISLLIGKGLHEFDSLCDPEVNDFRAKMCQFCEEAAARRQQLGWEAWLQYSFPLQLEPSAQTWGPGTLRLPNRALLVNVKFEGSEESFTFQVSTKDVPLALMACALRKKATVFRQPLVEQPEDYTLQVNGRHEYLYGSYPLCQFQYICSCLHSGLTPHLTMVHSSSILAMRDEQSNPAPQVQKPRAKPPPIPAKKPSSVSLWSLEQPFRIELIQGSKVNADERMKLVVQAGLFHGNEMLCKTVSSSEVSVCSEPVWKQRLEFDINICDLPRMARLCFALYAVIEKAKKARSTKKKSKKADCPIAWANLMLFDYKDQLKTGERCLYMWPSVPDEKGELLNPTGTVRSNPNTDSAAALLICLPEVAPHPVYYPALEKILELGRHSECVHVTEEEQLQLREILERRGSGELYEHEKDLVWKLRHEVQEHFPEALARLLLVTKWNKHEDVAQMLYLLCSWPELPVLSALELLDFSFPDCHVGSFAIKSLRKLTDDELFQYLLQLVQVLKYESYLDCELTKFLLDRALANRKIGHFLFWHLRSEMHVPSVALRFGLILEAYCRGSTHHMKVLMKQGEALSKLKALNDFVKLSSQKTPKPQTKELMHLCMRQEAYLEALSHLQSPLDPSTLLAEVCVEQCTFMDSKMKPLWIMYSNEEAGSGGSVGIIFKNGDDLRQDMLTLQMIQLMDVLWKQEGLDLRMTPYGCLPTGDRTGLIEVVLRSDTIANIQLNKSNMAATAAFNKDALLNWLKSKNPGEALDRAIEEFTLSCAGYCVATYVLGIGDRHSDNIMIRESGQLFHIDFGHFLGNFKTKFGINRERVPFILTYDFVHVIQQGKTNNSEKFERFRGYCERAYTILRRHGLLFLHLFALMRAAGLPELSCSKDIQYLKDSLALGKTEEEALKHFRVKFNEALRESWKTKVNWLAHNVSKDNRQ
Chain of PI3K-δ (P27986 whole entry partner): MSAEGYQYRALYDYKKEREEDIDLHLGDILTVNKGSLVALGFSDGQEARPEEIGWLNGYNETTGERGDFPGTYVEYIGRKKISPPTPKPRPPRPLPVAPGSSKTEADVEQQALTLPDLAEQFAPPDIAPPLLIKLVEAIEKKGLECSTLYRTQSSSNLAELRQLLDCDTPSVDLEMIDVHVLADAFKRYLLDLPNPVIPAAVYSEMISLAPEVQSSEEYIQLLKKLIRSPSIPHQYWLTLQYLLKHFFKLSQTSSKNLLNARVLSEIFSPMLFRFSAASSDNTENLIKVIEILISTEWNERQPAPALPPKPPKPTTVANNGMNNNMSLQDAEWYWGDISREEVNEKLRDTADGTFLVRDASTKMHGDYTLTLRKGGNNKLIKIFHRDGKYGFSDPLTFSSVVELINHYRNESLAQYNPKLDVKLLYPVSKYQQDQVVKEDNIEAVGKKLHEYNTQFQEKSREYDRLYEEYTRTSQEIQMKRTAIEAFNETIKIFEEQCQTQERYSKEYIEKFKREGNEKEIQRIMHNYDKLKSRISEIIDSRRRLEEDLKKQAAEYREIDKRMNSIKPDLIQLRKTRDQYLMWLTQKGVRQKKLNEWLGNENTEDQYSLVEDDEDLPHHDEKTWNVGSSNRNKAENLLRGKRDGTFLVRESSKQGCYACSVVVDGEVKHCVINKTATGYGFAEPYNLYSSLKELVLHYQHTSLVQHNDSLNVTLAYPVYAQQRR
Chain of Aurora A (O14965 whole entry): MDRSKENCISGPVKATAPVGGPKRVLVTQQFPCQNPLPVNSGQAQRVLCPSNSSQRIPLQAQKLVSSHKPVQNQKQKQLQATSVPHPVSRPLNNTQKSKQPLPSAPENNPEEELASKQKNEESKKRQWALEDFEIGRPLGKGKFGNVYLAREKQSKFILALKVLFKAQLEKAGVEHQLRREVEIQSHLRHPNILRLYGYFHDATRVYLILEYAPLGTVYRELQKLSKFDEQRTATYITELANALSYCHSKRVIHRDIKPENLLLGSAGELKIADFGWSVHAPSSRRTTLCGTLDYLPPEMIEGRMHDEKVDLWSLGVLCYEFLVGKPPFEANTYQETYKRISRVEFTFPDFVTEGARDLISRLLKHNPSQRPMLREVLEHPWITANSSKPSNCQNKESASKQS
Chain of PI3K-γ (P48736 whole entry): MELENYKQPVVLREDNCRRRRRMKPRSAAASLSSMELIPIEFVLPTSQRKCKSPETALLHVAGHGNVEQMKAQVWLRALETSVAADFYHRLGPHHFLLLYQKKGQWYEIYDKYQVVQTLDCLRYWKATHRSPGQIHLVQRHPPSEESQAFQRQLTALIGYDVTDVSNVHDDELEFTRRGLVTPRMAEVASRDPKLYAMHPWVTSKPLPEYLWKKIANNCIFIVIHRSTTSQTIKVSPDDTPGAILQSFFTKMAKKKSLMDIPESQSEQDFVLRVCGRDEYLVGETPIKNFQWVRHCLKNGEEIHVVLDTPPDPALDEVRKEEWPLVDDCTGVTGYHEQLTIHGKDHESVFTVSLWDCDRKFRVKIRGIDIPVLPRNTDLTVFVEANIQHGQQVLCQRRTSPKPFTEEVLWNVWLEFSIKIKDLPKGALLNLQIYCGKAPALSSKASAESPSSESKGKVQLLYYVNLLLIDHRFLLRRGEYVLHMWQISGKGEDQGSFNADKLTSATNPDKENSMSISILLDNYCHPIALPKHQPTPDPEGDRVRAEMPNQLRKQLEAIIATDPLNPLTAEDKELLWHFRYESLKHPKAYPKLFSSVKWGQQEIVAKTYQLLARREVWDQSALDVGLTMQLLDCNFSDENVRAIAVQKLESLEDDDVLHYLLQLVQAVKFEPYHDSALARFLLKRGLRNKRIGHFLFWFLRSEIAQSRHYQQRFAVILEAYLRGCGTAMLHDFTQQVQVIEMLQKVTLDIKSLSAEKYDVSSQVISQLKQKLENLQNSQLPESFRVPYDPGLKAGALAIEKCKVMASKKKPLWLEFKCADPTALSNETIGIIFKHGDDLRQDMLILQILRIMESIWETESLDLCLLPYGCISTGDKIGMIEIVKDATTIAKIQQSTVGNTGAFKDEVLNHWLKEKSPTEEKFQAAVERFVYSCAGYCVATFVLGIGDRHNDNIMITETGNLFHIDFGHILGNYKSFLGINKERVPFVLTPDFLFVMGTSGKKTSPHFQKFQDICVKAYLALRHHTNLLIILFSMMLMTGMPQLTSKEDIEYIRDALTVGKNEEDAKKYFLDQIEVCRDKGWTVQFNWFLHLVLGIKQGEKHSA
Chain of PI3K-β (P42338 whole entry): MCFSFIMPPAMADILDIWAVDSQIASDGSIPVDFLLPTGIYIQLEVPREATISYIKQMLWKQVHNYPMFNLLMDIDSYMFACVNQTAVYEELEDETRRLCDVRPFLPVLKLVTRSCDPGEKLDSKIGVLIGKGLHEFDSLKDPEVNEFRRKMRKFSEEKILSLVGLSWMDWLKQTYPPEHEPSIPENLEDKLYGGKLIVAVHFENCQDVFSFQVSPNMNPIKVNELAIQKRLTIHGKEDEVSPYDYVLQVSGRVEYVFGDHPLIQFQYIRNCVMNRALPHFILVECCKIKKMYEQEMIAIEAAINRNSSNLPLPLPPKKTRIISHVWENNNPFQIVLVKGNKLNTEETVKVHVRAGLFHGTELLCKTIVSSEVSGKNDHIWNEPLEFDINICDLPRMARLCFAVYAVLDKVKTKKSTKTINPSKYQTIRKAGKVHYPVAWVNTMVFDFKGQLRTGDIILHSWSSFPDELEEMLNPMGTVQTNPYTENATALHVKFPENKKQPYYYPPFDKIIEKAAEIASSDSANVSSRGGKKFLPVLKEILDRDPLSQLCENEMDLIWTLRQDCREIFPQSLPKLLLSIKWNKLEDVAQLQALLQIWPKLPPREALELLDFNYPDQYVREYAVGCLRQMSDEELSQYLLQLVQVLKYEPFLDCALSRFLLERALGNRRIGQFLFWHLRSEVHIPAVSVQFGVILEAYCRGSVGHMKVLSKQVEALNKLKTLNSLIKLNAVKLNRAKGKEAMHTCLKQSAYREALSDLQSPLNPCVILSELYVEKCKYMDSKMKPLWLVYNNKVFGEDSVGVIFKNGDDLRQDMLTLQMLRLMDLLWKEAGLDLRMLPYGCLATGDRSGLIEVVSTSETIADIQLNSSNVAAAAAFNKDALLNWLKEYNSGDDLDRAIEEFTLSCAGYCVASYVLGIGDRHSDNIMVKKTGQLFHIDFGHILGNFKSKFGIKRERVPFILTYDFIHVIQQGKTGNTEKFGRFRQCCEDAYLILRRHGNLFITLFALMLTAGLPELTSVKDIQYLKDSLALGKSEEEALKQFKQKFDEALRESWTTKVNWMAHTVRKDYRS
Chain of PI3K-β (P27986 whole entry partner): as the sequence (P27986 whole entry partner) above

IC50 (Aurora B) [µM]	IC50 (PI3K-γ) [µM]	IC50 (PI3K-δ) [µM]	IC50 (Aurora A) [µM]	Structure (SMILES)	further results
	0.438	0.343		C=CC(=O)Nc1cccc(NS(=O)(=O)c2ccc(Nc3ncc4c(n3)N(C)c3ccc(C)cc3C(=O)N4C)cc2)c1 [Compound 8, N-(3-((4-((5,8,11-trimethyl-6-oxo-6,11-dihydro-5H-benzo[e]pyrimido[5,4-b][1,4]diazepin-2-yl)amino)phenyl)sulfonamido)phenyl)acrylamide]	
	0.0507	0.558		Cc1ccc2c(c1)C(=O)N(C)c1cnc(Nc3cccc(S(=O)(=O)N4CCN(C)CC4)c3)nc1N2C [Compound 10]	
	2.61	3.25		Cc1ccc2c(c1)C(=O)N(C)c1cnc(Nc3ccc(S(=O)(=O)N4CCN(C)CC4)cc3)nc1N2C [Compound 11, 5,8,11-trimethyl-2-((4-((4-methylpiperazin-1-yl)sulfonyl)phenyl)amino)-5,11-dihydro-6H-benzo[e]pyrimido[5,4-b][1,4]diazepin-6-one]	
	0.041	0.058		Cc1ccc2c(c1)C(=O)N(C)c1cnc(Nc3ccc(S(=O)(=O)N4CCC(O)CC4)cc3)nc1N2C [Compound 13, 2-((4-((4-hydroxypiperidin-1-yl)sulfonyl)phenyl)amino)-5,8,11-trimethyl-5,11-dihydro-6H-benzo[e]pyrimido[5,4-b][1,4]diazepin-6-one]	
	0.0759	0.108		Cc1ccc2c(c1)C(=O)N(C)c1cnc(Nc3cccc(S(N)(=O)=O)c3)nc1N2C [Compound 15, 3-((5,8,11-trimethyl-6-oxo-6,11-dihydro-5H-benzo[e]pyrimido[5,4-b][1,4]diazepin-2-yl)amino)benzenesulfonamide]	

More lines, now with the values behind:

Structure (SMILES)	IC50 (Aurora B) [µM]	IC50 (PI3K-γ) [µM]	IC50 (PI3K-δ) [µM]	IC50 (Aurora A) [µM]	further results
C=CC(=O)N1CCN(S(=O)(=O)c2ccc(Nc3ncc4c(n3)N(C)c3ccc(C)cc3C(=O)N4C)cc2)CC1 [Compound 2, 2-((4-((4-acryloylpiperazin-1-yl)sulfonyl)phenyl)amino)-5,8,11-trimethyl-5,11-dihydro-6H-benzo[e]pyrimido[5,4-b][1,4]diazepin-6-one]	0.016	0.231	0.112	0.023	
C=CC(=O)NC1CCN(S(=O)(=O)c2cccc(Nc3ncc4c(n3)N(C)c3ccc(C)cc3C(=O)N4C)c2)CC1 [Compound 3, N-(1-((3-((5,8,11-trimethyl-6-oxo-6,11-dihydro-5H-benzo[e]pyrimido[5,4-b][1,4]diazepin-2-yl)amino)phenyl)sulfonyl)piperidin-4-yl)acrylamide]	0.631	0.02	0.122	0.355	
C=CC(=O)NC1CCN(S(=O)(=O)c2ccc(Nc3ncc4c(n3)N(C)c3ccc(C)cc3C(=O)N4C)cc2)CC1 [Compound 4, N-(1-((4-((5,8,11-trimethyl-6-oxo-6,11-dihydro-5H-benzo[e]pyrimido[5,4-b][1,4]diazepin-2-yl)amino)phenyl)sulfonyl)piperidin-4-yl)acrylamide]		0.123	0.0486		
C=CC(=O)Nc1ccc(NS(=O)(=O)c2cccc(Nc3ncc4c(n3)N(C)c3ccc(C)cc3C(=O)N4C)c2)cc1 [Compound 5, N-(4-((3-((5,8,11-trimethyl-6-oxo-6,11-dihydro-5H-benzo[e]pyrimido[5,4-b][1,4]diazepin-2-yl)amino)phenyl)sulfonamido)phenyl)acrylamide]	0.29	0.0293	0.015	0.272	IC50 (PI3K-β): > 10 µM; IC50 (PI3K-α): 0.728 µM
C=CC(=O)Nc1ccc(NS(=O)(=O)c2ccc(Nc3ncc4c(n3)N(C)c3ccc(C)cc3C(=O)N4C)cc2)cc1 [Compound 6, N-(4-((4-((5,8,11-trimethyl-6-oxo-6,11-dihydro-5H-benzo[e]pyrimido[5,4-b][1,4]diazepin-2-yl)amino)phenyl)sulfonamido)phenyl)acrylamide]	0.08	0.096	0.306	0.049	
C=CC(=O)Nc1cccc(NS(=O)(=O)c2cccc(Nc3ncc4c(n3)N(C)c3ccc(C)cc3C(=O)N4C)c2)c1 [Compound 7, N-(3-((3-((5,8,11-trimethyl-6-oxo-6,11-dihydro-5H-benzo[e]pyrimido[5,4-b][1,4]diazepin-2-yl)amino)phenyl)sulfonamido)phenyl)acrylamide]	0.13	0.039	0.328	0.188	
Cc1ccc2c(c1)C(=O)N(C)c1cnc(Nc3ccc(S(N)(=O)=O)cc3)nc1N2C [Compound 14]	0.004	0.03	0.02	0.016	
CN1C(=O)c2ccccc2N(C)c2nc(Nc3ccc(S(N)(=O)=O)cc3)ncc21 [Compound 16]	0.0133	0.049	0.0145	0.0048	
CN1C(=O)c2ccccc2N(C)c2nc(Nc3cccc(S(N)(=O)=O)c3)ncc21 [Compound 17]	0.004	0.004	0.004	0.002	
Cc1cc(S(N)(=O)=O)ccc1Nc1ncc2c(n1)N(C)c1ccccc1C(=O)N2C [Compound 18]	9.36	0.822	2.38	4.85	
C[C@H](Nc1ncnc2nc[nH]c12)c1cc2cccc(Cl)c2c(=O)n1-c1ccccc1 [Duvelisib, reference compound]					IC50 (MV4:11 cells): 4.4 µM; IC50 (Loucy cells): 0.98 µM; IC50 (Molm14 cells): 1.2 µM; inhibition of PI3K-δ signaling (AKT and S6RP phosphorylation) [1]: the most potent PI3K-δ inhibitor; IC50 [2]: > 10 µM; IC50 (MOLT4 cells): 2.3 µM; IC50 (Jurkat cells): 1.9 µM; potency in the PI3K-δ assay compared with clinical compounds (PI3K-δ; FIG. 4B): the most potent
CC[C@H](Nc1ncnc2[nH]cnc12)c1nc2cccc(F)c2c(=O)n1-c1ccccc1 [Idelalisib, reference compound]					inhibition of PI3K-δ signaling (AKT and S6RP phosphorylation) [1]: comparable inhibition of, and selectivity for, PI3K-δ signaling; IC50 [2]: > 10 µM; potency in the PI3K-γ assay compared with clinical compounds (PI3K-γ; FIG. 4B): much less potent

Reference: patent publication US11155556B2, “Pyrimido-diazepinone kinase scaffold compounds and methods for treating PI3K-mediated disorders” (DANA-FARBER CANCER INSTITUTE, INC., priority 2016, dated 2021)
